Patent US20100004266A1, “Salt or Solvate of 5-Methyl-2(Piperazin-1-Yl)Benzenesulfonic Acid” (Mitsubishi Tanabe Pharma Corporation, priority 2006, published 2010)

How the values were obtained:
[1] = Thermal analysis (DSC) of the crystals; assay type: physicochemical; settings: 25-300° C., 20° C./min, dry nitrogen gas 50 mL/min
Experimental: For thermal analysis, the measurement was performed in a dry nitrogen gas stream (50 mL/min) from 25° C. to 300° C. at a temperature rise rate of 20° C./min.
For identification of the solvate form of the present invention, a powder X-ray diffraction apparatus (manufactured by Bruker) GADDS detector system and a thermal analysis equipment (manufactured by Mettler-Toledo) DSC822e system were used. The powder X-ray diffraction pattern was measured at room temperature using CuKα as a monochromator within the 2θ angle range of 1.5-41.5°. The thermal analysis was performed in a dry nitrogen gas stream (50 mL/min) from 25° C. to 300° C. at a temperature rise rate of 20° C./min.
Using the white solids obtained in Examples 1 and 2 as sample 1 (hydrochloride salt) and sample 2 (calcium salt), respectively, the thermal analysis was performed under the following conditions.
apparatus: DSC822e manufactured by Metter-Toledo temperature rise rate: 20° C./min atmosphere: dry nitrogen gas 50 mL/min measurement temperature: 25-300° C.
Using the solid obtained in Example 3 as sample 3 (2,2,2-[…] hydrate crystal), the thermal analysis was performed under the following conditions.

[2] = test system: cardiomyocytes; settings: cited from earlier work

Row | Molecule | crystal stability by thermal analysis [1] | no noticeable endothermic and exothermic peaks up to (temperature) [1] | excessive influx of calcium ions into cardiomyocytes [2]
1 | Cc1ccc(N2CCNCC2)c(S(=O)(=O)O)c1.OCC(F)(F)F [Sample 3, 5-methyl-2-(piperazin-1-yl)benzenesulfonic acid 2,2,2-tetrafluoroethanolate] | stable | around 80 °C | –
2 | Cc1ccc(N2CCNCC2)c(S(=O)(=O)O)c1 [compound A, 5-methyl-2-(piperazin-1-yl)benzenesulfonic acid] | – | – | remarkably suppresses
3 | Calcium 5-methyl-2-(piperazin-1-yl)benzenesulfonate [sample 2] | stable | 200 °C | –
4 | Cc1ccc(N2CCNCC2)c(S(=O)(=O)O)c1.Cl [sample 1, 5-methyl-2-(piperazin-1-yl)benzenesulfonic acid hydrochloride] | stable | 200 °C | –
